Emax data for 35 compounds are collected here from patent publication EP2818472A1, “Imidazo[4,5-c]pyridine and pyrrolo[3,2-c]pyridine compounds as G-protein-coupled receptor kinase 5 (GRK5) modulators” (Max-Planck-Gesellschaft zur Förderung der Wissenschaften …, priority 2013, dated 2014).

This test has as its system beta-TC6 cells. In words: Insulin HTRF assay (relative activity Ar) in beta-TC6 cells. Format: cell-based, mouse. The note with it: Mus musculus, Beta-TC6, 4 h, insulin HTRF, supernatant of beta-TC6 cells, incubation with test compound at 37°C for 2, 3, 4h; read-out: Ar (relative activity). An excerpt:
For further screening of compounds derived from compounds described above for their ability to regulate insulin release an insulin HTRF® (Homogeneous Time-Resolved Fluorescence; Cisbio International, France) was used. This assay is based on two antibodies against insulin binding to different epitopes of insulin. One of these antibodies is coupled to Europium (Ab-Eu-Cryptate) and the other one to the fluorophore XL665 (Ab-XL665). If the insulin is secreted into the supernatant of cell culture, both antibodies can bind to insulin and come therefore into close proximity, which allows upon excitation that energy transfer between (FRET) the long-life fluorescent donor Europium (cryptate) and the acceptors XL665. FRET increases proportionally with insulin concentration.
The automated assay protocol is as follows: • On day 1, 15k beta-TC6 cells per well were seeded for 24 or 48 h in 50 µL complete medium. On day 2 or respective on day 3, the medium is removed and cells are washed with 60 µL 1xPBS and 20 µL induction buffer is added using BioTek washer. Subsequently, 10 µL Sunitininb (5 -µM f.c.) or the test compound in induction buffer; 0.5% f.c. DMSO (CyBi-well) is transferred to the cells. The cells are then incubated at 37°C for 2, 3, 4h.
First 10 µL supernatant is transferred from the cell plates in HTRF plates (CyBi-well). 10 µL of 0, 1, 2, and 4 ng/ml insulin standard controls in assay medium is used as a control. To each well 10 µL of combined 1:25 Ab-XL665 (Acc) and 1:20 Ab-Eu-Cryptate (WellMate) are added and incubated for 120 min at RT in the dark. Finally HTRF is measured on ViewLux ultra high throughput microplate imager (PerkinElmer).
The evaluation software DataFactoty derives relative activities Ar according to the following equation: Ar = (V-R(0%control))/(R(100%control) -R0%control)) × 100 [formula]
The activity of the compounds was classified according to their Ar (relative activity) into the following ranges: […]
A general note: Time-resolved FRET reads energy transfer from a long-lived donor to a nearby acceptor.

The structures appear in SMILES notation.

As for `Cn1c(NCc2ccccc2)nc2cnc(Nc3cccc(O)c3)cc21` [Compound 622, 3-[[2-(benzylamino)-1-methyl-imidazo[4,5-c]pyridin-6-yl]amino]phenol], the Emax was 50 to 100%.

Regarding `CC(=O)Nc1cccc(Nc2nccc3c2cc(-c2cccnc2)n3C)c1` [Compound 245, N-[3-[[1-methyl-2-(3-pyridyl)pyrrolo[3,2-c]pyridin-4-yl]amino]phenyl]acetamide], the Emax is 50 to 100%. Then `c1ccc(CCNc2nccc3[nH]c(-c4ccncc4)nc23)cc1` [Compound 434, N-phenethyl-2-(4-pyridyl)-1H-imidazo[4,5-c]pyridin-4-amine], with 30 to 50%; and `COc1ccccc1-c1cc2c(Nc3ccc(C(N)=O)cc3)nccc2[nH]1` [Compound 294, 4-[[2-(2-methoxyphenyl)-1H-pyrrolo[3,2-c]pyridin-4-yl]amino]benzamide], with 50 to 100%. Turning to `CNc1nc2cnc(Nc3cc(OC)c(OC)c(OC)c3)cc2n1Cc1ccco1` [Compound 519, 1-(2-furylmethyl)-N2-methyl-N6-(3,4,5-trimethoxyphenyl)imidazo[4,5-c]pyridine-2,6-diamine], the Emax was in the range of 50 to 100%. `CC(=O)Nc1cccc(Nc2cc3[nH]c(-c4ccc(C(=O)N(C)C)cc4)cc3cn2)c1` [Compound 41, 4-[6-(3-acetamidoanilino)-1H-pyrrolo[3,2-c]pyridin-2-yl]-N,N-dimethyl-benzamide]: the Emax is above 100%. As to `COc1ccc(Nc2nccc3[nH]c(-c4ccsc4)cc23)cn1` [Compound 254, N-(6-methoxy-3-pyridyl)-2-(3-thienyl)-1H-pyrrolo[3,2-c]pyridin-4-amine], the Emax was 50 to 100%. Then `c1ccc(Cn2cnc3c(NCc4ccc5c(c4)OCO5)nccc32)cc1` [Compound 454, N-(1,3-benzodioxol-5-ylmethyl)-1-benzyl-imidazo[4,5-c]pyridin-4-amine], with 50 to 100%; and `CN(C)c1cccc(-c2cc3c(cn2)nc(NCc2ccccc2)n3C)c1` [Compound 620, N-benzyl-6-[3-(dimethylamino)phenyl]-1-methyl-imidazo[4,5-c]pyridin-2-amine], with above 100%. Consider `CN(C)C(=O)c1ccc(-c2cc3c(Nc4cccc(OC(F)(F)F)c4)nccc3n2C)cc1` [Compound 222, N,N-dimethyl-4-[1-methyl-4-[3-(trifluoromethoxy)anilino]pyrrolo[3,2-c]pyridin-2-yl]benzamide], for which the Emax lay within 0 to 30%. With `COc1cccc(Nc2nccc3[nH]c(-c4ccc5c(c4)OCCO5)nc23)c1` [Compound 410, 2-(2,3-dihydro-1,4-benzodioxin-6-yl)-N-(3-methoxyphenyl)-1H-imidazo[4,5-c]pyridin-4-amine] the figure was 30 to 50%. Then `COc1cc(Nc2nccc3c2cc(-c2cccnc2)n3C)cc(OC)c1OC` [Compound 237, 1-methyl-2-(3-pyridyl)-N-(3,4,5-trimethoxyphenyl)pyrrolo[3,2-c]pyridin-4-amine], with above 100%; and `CNc1nc2cnc(-c3ccc(CO)cc3)cc2n1C` [Compound 830, [4-[1-methyl-2-(methylamino)imidazo[4,5-c]pyridin-6-yl]phenyl]methanol], with 30 to 50%; and `CNc1nc2cnc(Nc3cccc(OC)c3)cc2n1-c1cc(OC)c(OC)c(OC)c1` [Compound 484, N6-(3-methoxyphenyl)-N2-methyl-1-(3,4,5-trimethoxyphenyl)imidazo[4,5-c]pyridine-2,6-diamine], with 30 to 50%. With `COc1cccc(Nc2nccc3[nH]c(-c4cccnc4)nc23)c1` [Compound 358, N-(3-methoxyphenyl)-2-(3-pyridyl)-1H-imidazo[4,5-c]pyridin-4-amine] the figure was 50 to 100%; with `CNc1nc2cnc(Nc3cc(OC)c(OC)c(OC)c3)cc2n1Cc1cccnc1` [Compound 559, N2-methyl-1-(3-pyridylmethyl)-N6-(3,4,5-trimethoxyphenyl)imidazo[4,5-c]pyridine-2,6-diamine], 50 to 100%; with `Cc1cccc(CNc2nc3cnc(-c4ccoc4)cc3n2C)c1` [Compound 583, 6-(3-furyl)-1-methyl-N-(m-tolylmethyl)imidazo[4,5-c]pyridin-2-amine], 50 to 100%. As to `CN(C)C(=O)c1ccc(-c2cc3cnc(N(C)c4ccccc4)cc3n2C)cc1` [Compound 52, N,N-dimethyl-4-[1-methyl-6-(N-methylanilino)pyrrolo[3,2-c]pyridin-2-yl]benzamide], the Emax is 30 to 50%. Then `CNc1nc2cnc(-c3cccc(O)c3)cc2n1Cc1ccccc1` [Compound 533, 3-[1-benzyl-2-(methylamino)imidazo[4,5-c]pyridin-6-yl]phenol], with 50 to 100%; and `CNc1nc2cnc(Nc3cccc(OC)c3)cc2n1CCN1CCOCC1` [Compound 552, N6-(3-methoxyphenyl)-N2-methyl-1-(2-morpholinoethyl)imidazo[4,5-c]pyridine-2,6-diamine], with 30 to 50%; and `COc1ccc(Nc2nccc3[nH]c(-c4ccsc4)cc23)cc1` [Compound 259, N-(4-methoxyphenyl)-2-(3-thienyl)-1H-pyrrolo[3,2-c]pyridin-4-amine], with 50 to 100%. Turning to `CNc1nc2cnc(Nc3cc(C(F)(F)F)ccc3F)cc2n1Cc1ccco1` [Compound 777, N6-[2-fluoro-5-(trifluoromethyl)phenyl]-1-(2-furylmethyl)-N2-methyl-imidazo[4,5-c]pyridine-2,6-diamine], the Emax was in the range of 0 to 30%. Take `CNc1nc2cnc(Nc3cccc(O)c3)cc2n1-c1cccc(C(F)(F)F)c1` [Compound 550, 3-[[2-(methylamino)-1-[3-(trifluoromethyl)phenyl]imidazo[4,5-c]pyridin-6-yl]amino]phenol]: the Emax was in the range of 30 to 50%. Then `COc1cc(Nc2cc3c(cn2)nc(-c2ccco2)n3C)cc(OC)c1OC` [Compound 707, 2-(2-furyl)-1-methyl-N-(3,4,5-trimethoxyphenyl)imidazo[4,5-c]pyridin-6-amine], with above 100%; and `COc1ccc(-c2cc3c(cn2)ncn3-c2cccc(C(F)(F)F)c2)cc1OC` [Compound 734, 6-(3,4-dimethoxyphenyl)-1-[3-(trifluoromethyl)phenyl]imidazo[4,5-c]pyridine], with 30 to 50%. With `COCCNc1nc2cnc(Nc3ccc(NC(C)=O)cc3)cc2n1C` [Compound 646, N-[4-[[2-(2-methoxyethylamino)-1-methyl-imidazo[4,5-c]pyridin-6-yl]amino]phenyl]acetamide] the figure was 50 to 100%; with `COc1cccc(-c2nc3c(Nc4cccc(C(F)(F)F)c4)nccc3[nH]2)c1` [Compound 373, 2-(3-methoxyphenyl)-N-[3-(trifluoromethyl)phenyl]-1H-imidazo[4,5-c]pyridin-4-amine], 0 to 30%. Take `CC(=O)Nc1cccc(Nc2cc3[nH]c(-c4cn[nH]c4)cc3cn2)c1` [Compound 117, N-[3-[[2-(1H-pyrazol-4-yl)-1H-pyrrolo[3,2-c]pyridin-6-yl]amino]phenyl]acetamide]: the Emax is above 100%.

Take `FC(F)(F)c1cccc(-c2nc3c(NCCN4CCOCC4)nccc3[nH]2)c1` [Compound 357, N-(2-morpholinoethyl)-2-[3-(trifluoromethyl)phenyl]-1H-imidazo[4,5-c]pyridin-4-amine]: the Emax lay within 30 to 50%. Then `COc1ccc(OC)c(CCNc2nc3cnc(-c4cccc(O)c4)cc3n2C)c1` [Compound 820, 3-[2-[2-(2,5-dimethoxyphenyl)ethylamino]-1-methyl-imidazo[4,5-c]pyridin-6-yl]phenol], with 30 to 50%; and `CC(=O)Nc1ccc(Nc2cc3c(cn2)nc(NCc2cccc(C)c2)n3C)cc1` [Compound 576, N-[4-[[1-methyl-2-(m-tolylmethylamino)imidazo[4,5-c]pyridin-6-yl]amino]phenyl]acetamide], with 50 to 100%; and `c1ccc(-c2cc3c(Nc4ccccn4)nccc3[nH]2)cc1` [Compound 321, 2-phenyl-N-(2-pyridyl)-1H-pyrrolo[3,2-c]pyridin-4-amine], with 30 to 50%. With `COc1cccc(-c2cc3c(cn2)nc(NCCc2cc(OC)ccc2OC)n3C)c1` [Compound 823, N-[2-(2,5-dimethoxyphenyl)ethyl]-6-(3-methoxyphenyl)-1-methyl-imidazo[4,5-c]pyridin-2-amine] the figure was 30 to 50%; with `CNc1nc2cnc(-c3ccoc3)cc2n1Cc1ccccc1` [Compound 798, 1-benzyl-6-(3-furyl)-N-methyl-imidazo[4,5-c]pyridin-2-amine], 30 to 50%; with `CC(=O)N(C)c1cccc(-c2cc3cnc(Nc4cccc(O)c4)cc3n2C)c1` [Compound 170, N-[3-[6-(3-hydroxyanilino)-1-methyl-pyrrolo[3,2-c]pyridin-2-yl]phenyl]-N-methyl-acetamide], 50 to 100%.
